Consider one substance from patent publication US20140296257A1, “High-Loading Water-Soluable Carrier-Linked Prodrugs” (Ascendis Pharma A/S, priority 2011, published 2014).

For this experiment the following is noted: pH 7.4 buffer, 37° C., released paliperidone plotted against time. On the procedure:
Sample was incubated at 37° C. At various time points aliquots were analyzed by UPLC and the amount of released paliperidone was plotted against time. […] Curve fitting software was used to determine half life time of drug release from the respective conjugate.

As to “4-arm PEG 20 kDa-octapaliperidone [Conjugate 5]”, the Drug release kinetics entry is on record as “first order kinetics”.
